Assay results reported in patent US9556153B1, “JAK1 inhibitors” (Eli Lilly and Company, priority 2015, dated 2017).

What was measured:
JAK1 = JAK1 (Homo sapiens, UniProt P23458); experiment: JAK LanthaScreen Kinase Assay (TR-FRET), JAK1 in vitro enzyme assay; format: biochemical; conditions: ATP 20.0 μM; n=6
Excerpt: (§1) JAK1, JAK2 and JAK3 In Vitro Enzyme Assays
(§2) The JAK LanthaScreen™ Kinase Assay (Invitrogen) is used to determine the ability of test compounds to inhibit JAK1, JAK2 and JAK3 kinase activity. These are TR-FRET assay formats that use long-lifetime terbium labeled antibody as the donor species and GFP-STAT1 as the acceptor species. Use the TR-FRET ratio to monitor JAK kinase activity where an increase in phosphorylation of the GFP-STAT1 results in an increase in the TR-FRET ratio. Perform the kinase reaction using a 12.5 μl reaction volume in shallow black 384-well Proxiplate. Add reagents to obtain final reaction conditions of […] HEPES pH, 1.76 mM Triton X-100, ATP (20.0 μM for JAK1 and JAK3 or 5 μM for JAK2) enzyme assays, 10.0 mM MgCl2, 1 mM EGTA and 0.01% Brij-35, 0.05 mM GFP-STAT1, 14 nM JAK1 enzyme for JAK1, 1.0 nM for JAK2 or 2.5 nM for JAK3 enzyme assays, and 4% DMSO and serial dilutions of test compound (diluted 1:3 from 20,000 to 1 nM). Following ATP/GFP-STAT1 addition, centrifuge the assay plates for 1 minute at 1000 revolutions per minute (RPM). Allow the plates to incubate at RT for 60 minutes and then add 12.5 μl of a stopping buffer containing 20 mM EDTA, 2 nM Terbium-anti-phosphorylated Signal Transducers and Activators of Transcription [phosphorylation Tyrosine 701 amino acid] […]

JAK2 = JAK2 (Homo sapiens, UniProt O60674); experiment: JAK LanthaScreen Kinase Assay (TR-FRET), JAK2 in vitro enzyme assay; format: biochemical; set-up: purchased Invitrogen; conditions: ATP 5 μM; n=6
Excerpt: as §1, §2

Sequence of JAK1 (P23458 whole entry): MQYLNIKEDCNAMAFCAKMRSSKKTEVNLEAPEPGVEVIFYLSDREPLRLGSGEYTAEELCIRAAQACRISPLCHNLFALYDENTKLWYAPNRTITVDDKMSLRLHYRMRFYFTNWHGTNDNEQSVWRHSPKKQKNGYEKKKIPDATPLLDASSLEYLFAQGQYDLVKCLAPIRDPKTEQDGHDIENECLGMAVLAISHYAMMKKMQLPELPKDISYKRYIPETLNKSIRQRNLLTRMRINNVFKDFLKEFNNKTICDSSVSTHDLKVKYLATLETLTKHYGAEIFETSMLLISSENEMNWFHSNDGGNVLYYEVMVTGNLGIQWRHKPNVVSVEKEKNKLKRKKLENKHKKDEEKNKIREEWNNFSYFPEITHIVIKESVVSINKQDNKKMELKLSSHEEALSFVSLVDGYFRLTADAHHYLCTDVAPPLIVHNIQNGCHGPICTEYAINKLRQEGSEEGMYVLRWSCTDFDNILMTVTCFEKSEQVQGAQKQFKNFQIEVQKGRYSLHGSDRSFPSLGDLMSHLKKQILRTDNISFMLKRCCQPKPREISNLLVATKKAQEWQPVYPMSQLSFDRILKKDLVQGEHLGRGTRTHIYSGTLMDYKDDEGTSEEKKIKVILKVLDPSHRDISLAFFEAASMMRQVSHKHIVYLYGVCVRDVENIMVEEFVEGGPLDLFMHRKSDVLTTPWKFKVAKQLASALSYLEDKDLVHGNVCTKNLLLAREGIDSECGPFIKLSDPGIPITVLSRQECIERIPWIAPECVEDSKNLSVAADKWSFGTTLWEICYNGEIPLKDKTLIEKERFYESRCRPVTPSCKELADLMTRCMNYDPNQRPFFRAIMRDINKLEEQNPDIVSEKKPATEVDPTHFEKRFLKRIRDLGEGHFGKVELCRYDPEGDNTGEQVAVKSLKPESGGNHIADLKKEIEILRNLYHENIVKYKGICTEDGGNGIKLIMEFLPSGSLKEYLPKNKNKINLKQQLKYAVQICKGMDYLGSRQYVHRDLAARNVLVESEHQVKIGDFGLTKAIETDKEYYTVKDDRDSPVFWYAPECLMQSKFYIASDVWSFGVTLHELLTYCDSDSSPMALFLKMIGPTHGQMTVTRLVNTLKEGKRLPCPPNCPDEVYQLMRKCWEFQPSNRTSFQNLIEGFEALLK
Sequence of JAK2 (O60674 whole entry): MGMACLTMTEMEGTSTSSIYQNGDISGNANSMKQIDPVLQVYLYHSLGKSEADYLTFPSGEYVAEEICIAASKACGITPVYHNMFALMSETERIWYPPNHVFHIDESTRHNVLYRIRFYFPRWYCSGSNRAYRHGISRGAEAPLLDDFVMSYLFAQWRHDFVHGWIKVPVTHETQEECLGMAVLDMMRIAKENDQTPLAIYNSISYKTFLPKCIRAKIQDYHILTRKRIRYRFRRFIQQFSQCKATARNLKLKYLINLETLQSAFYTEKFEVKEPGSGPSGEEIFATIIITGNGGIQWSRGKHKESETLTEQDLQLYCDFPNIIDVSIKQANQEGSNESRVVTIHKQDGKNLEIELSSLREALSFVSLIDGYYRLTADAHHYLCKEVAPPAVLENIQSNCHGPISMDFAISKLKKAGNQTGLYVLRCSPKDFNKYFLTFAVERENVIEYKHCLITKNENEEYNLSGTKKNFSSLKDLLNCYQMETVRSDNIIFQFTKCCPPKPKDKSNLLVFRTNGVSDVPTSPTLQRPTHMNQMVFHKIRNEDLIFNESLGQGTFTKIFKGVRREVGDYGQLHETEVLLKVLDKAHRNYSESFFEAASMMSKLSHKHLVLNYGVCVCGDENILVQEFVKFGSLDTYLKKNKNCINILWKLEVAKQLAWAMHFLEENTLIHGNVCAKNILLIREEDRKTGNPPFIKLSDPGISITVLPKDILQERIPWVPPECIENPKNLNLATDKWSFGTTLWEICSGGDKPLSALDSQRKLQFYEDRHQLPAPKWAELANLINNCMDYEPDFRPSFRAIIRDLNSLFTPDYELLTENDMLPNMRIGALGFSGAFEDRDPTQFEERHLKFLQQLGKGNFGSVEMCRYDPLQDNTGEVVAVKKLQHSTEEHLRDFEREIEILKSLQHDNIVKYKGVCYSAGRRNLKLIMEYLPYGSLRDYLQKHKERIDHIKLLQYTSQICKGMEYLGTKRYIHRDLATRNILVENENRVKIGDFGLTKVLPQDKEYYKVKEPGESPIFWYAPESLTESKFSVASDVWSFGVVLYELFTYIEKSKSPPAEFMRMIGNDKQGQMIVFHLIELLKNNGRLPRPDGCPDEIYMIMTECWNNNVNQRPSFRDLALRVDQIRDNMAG

IC50 (JAK1): 0.004 ± 0.0008 µM | IC50 (JAK2): 0.557 ± 0.337 µM
Structure (SMILES): Cc1cc(Nc2cc(O[C@H]3CC[C@@H](NC[C@@H](O)C(F)(F)F)CC3)cc3c2ncn3C)nn1C [Example 1, (2R)-3-{[cis-4-({4-[(1,5-Dimethyl-1H-pyrazol-3-yl)amino]-1-methyl-1H-benzimidazol-6-yl}oxy)cyclohexyl]amino}-1,1,1-trifluoropropan-2-ol]
